In a melting point compilation (Tetko et al.; mined from patent text by program, amines drawn as free bases though some values may be those of a salt):
Starred links: 1 amine or outer side, 2 acyl side, 3 side chain; linkers in the order of their positions; H or OH if unused. Residues, ends and D or L forms follow the SMILES beside them. *: point of attachment. βAsp = O=C(O)[CH](CC(=O)[*:2])N[*:1]; Bz = O=C(c1ccccc1)*

Row | melting point [°C] | Compound
1 | 186 to 190 | CC(C)CC(=O)N1CCC(c2nc3cc(-c4ccc(C(N)=O)c(F)c4)ccc3o2)CC1
2 | 192 to 194 | O=c1ccn(-c2cccc(C(F)(F)F)c2)nc1-c1ccn[nH]1
3 | > 250 | NCC1Cc2cc(C(F)(F)F)cc(-c3ccc(Cl)cc3)c2O1 (stereo unspecified)
4 | > 300 | Nc1nc2c([nH]c(=O)n2Cc2cccs2)c(=O)[nH]1
5 | 155 | CCOc1ccc2[nH]c(=O)n(C3CCOCC3)c2c1
6 | 87.9 to 88.4 | CCOc1ccc(-n2nnnc2C(F)(F)F)cc1C=O
7 | 237 to 244 | CC(C)C1(C)N=C(c2nc3occc3cc2C(=O)O)NC1=O (stereo unspecified)
8 | 160 to 161 | O=C(CCCCl)Nc1ccc2[nH]ncc2c1
9 | 109 to 110 | CS(=O)(=O)c1ccc(-c2cnn(-c3ccc(F)c(F)c3)c(=O)c2-c2ccc(F)cc2)cc1
10 | 192 to 193 | CS(=O)(=O)c1ccc(C(Cc2ccc(F)cc2)C(=O)Nc2cncc(Cl)n2)cc1 (stereo unspecified)
11 | 185 to 186 | CC(C)CC(=O)Nc1c(C(=O)c2cccc(Cl)c2)[nH]c2cc(Cl)ccc12
12 | 199 to 200 | COc1ccc(S(=O)(=O)Nc2ccccc2NC(=O)c2cnccc2C)cc1
13 | 95 to 96 | COc1cc(C(=O)c2ccc(C(F)(F)F)cc2)cc(N)c1OC
14 | 102 to 103 | COC(=O)c1ccnc(-c2cccc3cc(Cc4cc(F)cc(Cl)c4)sc23)c1
15 | 203 to 204 | CN(C)c1ccc(-c2cc3nccnc3[nH]2)cc1CCCO
16 | 132 to 134 | Cc1cc(CC(=O)O)n(C)c1C(=O)c1ccc2n1CCC2
17 | 47 to 48 | CCCc1c(OCCCCCBr)ccc2c1OCCC2=O

Row | melting point [°C] | Compound
18 | 74 to 75 | CCSc1c(C=NOC)c(=O)n(C)c(=O)n1C
19 | 294 to 298 | O=c1nc(-c2ccc(F)cc2)c2ccccc2[nH]1
20 | 238 to 240 | CC(C)(C)Sc1c(CC(C)(C)C(=O)O)n(Cc2ccc(Cl)cc2)c2ccc(OCc3ccncc3)cc12
21 | 106 | OCc1c(C(F)(F)F)[nH]c2ccccc12
22 | 167 | CCCCc1nc2cc[nH]c(=O)c2n1Cc1ccc(-c2ccccc2-c2nnn[nH]2)cc1
23 | 166 to 168 | O=c1cc2c(nn1-c1ccc(Cl)cc1)-c1cnccc1CC2
24 | 245 to 246 | Cc1cc(C)c2sc(-c3ccccn3)nc(=O)c2c1
25 | 275 to 280 | COc1ccc(Cl)cc1-n1c(-c2ccc(C(F)(F)F)cc2)n[nH]c1=S
26 | 126 to 128 | O=c1nc(-c2cccc(CSCc3ccccc3)n2)sc2ccccc12
27 | 108 to 110 | CC(=O)c1cc(F)c(OCCOc2ccc3ccccc3c2)c(F)c1
28 | 338 to 339 | Cc1cnc2[nH]cc(/C=C3\N=C(NCC(C)C)NC3=O)c2c1
29 | 92 to 93 | O=C(NCc1ccc([N+](=O)[O-])cc1)OCc1ccccc1
30 | 199 to 201 | COc1cc(OCC(CO)CO)c(-c2cccs2)cc1C=CC(=O)c1ccc(C(=O)O)cc1
31 | 171 to 174 | O=S(CCc1ccccc1)c1nc2cnccc2[nH]1 (stereo unspecified)
32 | 166 | C#Cc1cnn2c(C(F)(F)F)cc(-c3ccc(Cl)c(C)c3)nc12
33 | 177 to 178 | CC(C)Cc1nc2c(N)nc3ccccc3c2n1CCOc1ccccc1
34 | 87 | c1ccc2c(c1)CSO2

More lines, now with the values behind:

Row | Compound | melting point [°C]
35 | COc1ccc(C2(C#Cc3cccc([N+](=O)[O-])c3)CCCC(=O)C2)cc1OC1CCCC1 (stereo unspecified) | 46 to 48
36 | Cc1ccc(S(=O)(=O)NCCN(CCNS(=O)(=O)c2ccc(C)cc2)Cc2ccccc2)cc1 | 87 to 91
37 | OC/C=C/c1ccc(O)cc1 | 116 to 118
38 | CC(C)OC(=S)SSCCSSC(=S)OC(C)C | 66
39 | CC(C)(C)OC(=O)NC(Cc1ccccc1)C(O)CNCC(O)C(Cc1ccccc1)NC(=O)C1c2ccccc2CN1C=O (stereo unspecified) | 174 to 176
40 | CCC(Oc1ccc(S(=O)(=O)c2ccc(C)nc2Nc2c(C)cc(C)cc2C)cc1)C(=O)OC (stereo unspecified) | 111 to 113
41 | CCC(=O)N1CCc2cc(O)c(OC)cc2C1 | 116 to 118
42 | CCOC(C)(C)C(=O)O[C@H]1C[C@H](O)C=C2C=C[C@H](C)[C@H](CC[C@@H]3C[C@@H](O)CC(=O)O3)[C@H]21 | 132
43 | COc1cc(-c2ccc(N3CCCN(c4ccc(-c5cc(OC)c(O)c(OC)c5)cn4)CC3)nc2)cc(OC)c1O | 200 to 202
44 | CC(C)OC(=O)C=Cc1cc([N+](=O)[O-])ccc1Cl | 74 to 75
45 | CCCCCCCC(=O)NNC(=O)N1Cc2ccccc2Oc2ccc(C(F)(F)F)cc21 | 97 to 100
46 | CCCCCCCOC(=O)Oc1ccc(-c2ccc(C#N)cc2)cc1 | 50.2 to 50.5
47 | CNc1nc(-c2cccc(NC(=O)c3ccc(OC)c(Cl)c3)c2)c2cc(OC)c(OC)cc2n1 | 130 to 132
48 | O=C(O)C1CCCn2c(=O)n(CS)c(=O)n21 (stereo unspecified) | 158
49 | CCCCN(CCCC)CCCOc1ccc(C(=O)c2c(-c3ccccc3)n(C)c3ccc(NS(C)(=O)=O)cc23)cc1 | 116
50 | CC1CC2=CC(=O)CCC2C2CCC3(C)C(C(F)F)CCC3C12 (stereo unspecified) | 131 to 135
51 | O=C(O)CCCCCCCCCCOc1ccccc1 | 76 to 78
52 | Nc1ccc([C@H]2CC[C@H](NCCCc3ccccc3)CC2)cc1 | 60 to 63
53 | CC1(C)CC(=C(c2ccc(O)cc2)c2ccc(OCCOCCO)cc2)CC(C)(C)C1 | 122 to 124

Row | Compound | melting point [°C]
54 | CC(C)(C)C(=O)NC(=O)N1CC1C#N (stereo unspecified) | 136 to 138
55 | CCOP(=O)(/C=C/c1cn(-c2ccccc2)nc1OCc1ccc(OCc2nc(-c3ccccc3)cn2C)c(OC)c1)OCC | 144 to 145
56 | CCCc1c(OCCCSc2nnc(NC(=O)CC(=O)O)s2)ccc(C(C)=O)c1O | 172 to 174
57 | CC(=O)OC1CCC2(C)C(CCC3C4CCC(C(C)=O)C4(C)CC(=O)C32)C1 (stereo unspecified) | 130 to 133
58 | CCOC(=O)NC(=S)OCc1ccc(Cl)cc1 | 95
59 | CC(C)(C)OC(=O)N1C(=O)[C@H](O)[C@@H]1C1CCCCC1 | 121 to 122
60 | CCCCCCCCCCCCCCCCNc1ccc(C(=O)NC(C)(C)C(=O)O)cc1 | 199 to 202
61 | C=Cc1ccc2nc(-c3ccccc3)c(-c3ccccc3)nc2c1 | 122 to 123
62 | COc1ccc(C(CBr)(OC)OC)cc1 | 52 to 53
63 | CC1(C)CCC(C)(C)c2cc(-c3cc(C=CC(=O)O)ccc3O)c(OCc3ccc(Cl)cc3)cc21 | 147 to 149
64 | CC(C)c1cccc(NC(=N)Nc2cccc(C(C)C)c2)c1 | 118 to 119
65 | CCOc1ccc(OC)c2c1CCC([N+](=O)[O-])=C2 | 90 to 92
66 | N#CC1=C(C#N)Sc2nc3cc([N+](=O)[O-])c([N+](=O)[O-])cc3nc2S1 | 230 to 233
67 | COc1ccc2c(c1OC)CC[C@H]1[C@H]2CCCN1CCc1ccccc1 (relative stereo) | 110 to 111
68 | CC(=O)Oc1ccc(C(=O)OC2C=C(C)C(=O)CC(C)(C)C2O)cc1 (stereo unspecified) | 132 to 133
69 | CN(C)S(=O)(=O)n1cc(I)cn1 | 32
70 | COc1ccc(N2C(=O)N(c3ccccc3)c3nc(Nc4ccccc4)ncc3C2C(C)C)cc1 (stereo unspecified) | 229 to 235
71 | CC(NC(=O)CC(NC(=O)c1ccccc1)C(=O)O)C(=O)N1CCCC1C(=O)O (stereo not drawn) ({Bz-βAsp}-Ala-Pro-OH; configuration not given here) | 110
